Measurements taken from patent publication US12161646B2, “Polycyclic carbamoylpyridone derivatives, pharmaceutical compositions and use thereof” (JIAXING ANDICON BIOTECH CO., LTD., priority 2018, dated 2024).

How the values were obtained:
[1] = Detection of toxicity of samples to MDCK cells (alamarBlue); type: cell-based; conditions: dog, 48 hours incubation
Text: Example 9: Detection of Toxicity of Samples to MDCK Cells
The experiment uses alamarBlue® (Invitrogen) kit to detect the toxic effects of drugs on cells.
Experimental principle: The experiment uses alamarBlue® (Invitrogen) kit to detect the toxic effects of drugs on cells. AlamarBlue® is a redox indicator that produces changes in absorbance and fluorescent signals based on cellular metabolic activity. AlamarBlue® is freely soluble in water. After its oxidized form enters cells, it will be reduced by mitochondrial enzymes to produce measurable fluorescence and color changes. It is used for quantitative analysis of cell viability and cell proliferation, and for in vitro cytotoxicity studies. Normal cells with metabolic activity can convert the reagents to produce strong fluorescence and color changes.
Experimental procedure: MDCK cells were seeded in a 96-well cell culture plate, and cultured till cell attachment for later use. The drug was serially 3 times diluted from 2 times the highest test concentration to 8 gradients. The drug was added to the cells and cultured in a CO2 incubator at 37° C. […] The toxicity of the drug to cells is inversely proportional to the activity of the cells and is expressed as the activity of the cells. cell activity (%)=(drug group-blank control)/(cell control-blank control)*100 Calculation formula: […]

[2] = Bioavailability test; type: in vivo, SD rats; conditions: for BA%: SD rats, from AUC of oral and intravenous administration; for half-life: SD, rat, in vivo, iv
Experimental: Example 6: Bioavailability Test
<Experimental Materials and Methods for Oral Absorption Research>
• (1) Animals used: SD rats are used. • (2) Feeding conditions: SD rats were allowed to take in solid feed and purified water freely. • (3) Dosing amount and grouping setting: Oral or intravenous administration were performed at prescribed dosage. The groups were set as follows. (the dosage of each compound varied)
Oral administration 1 to 30 mg/kg (n=5 to 6)
Intravenous administration 0.5 to 10 mg/kg (n=5 to 6) • (4) Preparation of dosing solution: suspension was used for oral administration through intragastric administration. Solution was used for intravenous administration through tail vein. • (5) Evaluation items: Blood was collected overtime, and the concentrations of the drugs in plasma were determined by LC/MS/MS. • (6) Statistical analysis: For concentration changes in plasma, the area under the concentration-time curve (AUC) in plasma was calculated using the nonlinear least squares method, and the bioavailability (BA) was calculated from the AUC in the oral administration group and the intravenous administration group, and the elimination half-life of drug concentration in plasma through intravenous administration was counted.

[3] = tested on: influenza virus; assay: CPE suppression effect confirmation test; type: cell-based; conditions: for CPE inhibitory effect compared with S-033188A: relative to S-033188A; for EC50: unidentified influenza virus, 72 h, read-out: CPE_EC50
[4] = tested on: A/WS/33, A/Victoria/3/75 or B/Maryland/1/59; type: in vivo, BALB/cAnNCrlCrlj mice; conditions: single oral administration, 50% lethal suppression, 14 days after infection

SMILES	CC50 at 48 h [1]	BA% [2]	half-life [2]	CPE inhibitory effect compared with S-033188A [3]	EC50 [3]	ED50 [4]
[2H][C@]1(N2[C@@H]3COCCN3C(=O)c3c(O)c(=O)ccn32)c2ccccc2SCc2c1ccc(F)c2F [1A]	48.3 µM	7.1%	4 h	twice	0.00068 µM	
[2H][C@]1(N2[C@@H]3COCCN3C(=O)c3c(OCOC(=O)OC)c(=O)ccn32)c2ccccc2SCc2c1ccc(F)c2F [1B]		18.4%				0.41 mg/kg/day
[2H]C1([2H])Sc2ccccc2[C@@H](N2[C@@H]3COCCN3C(=O)c3c(O)c(=O)ccn32)c2ccc(F)c(F)c21 [2A]		5.0%	5 h			
[2H]C1([2H])Sc2ccccc2[C@@H](N2[C@@H]3COCCN3C(=O)c3c(OCOC(=O)OC)c(=O)ccn32)c2ccc(F)c(F)c21 [2B]		15.9%				0.71 mg/kg/day
[2H]C1([2H])Sc2ccccc2[C@]([2H])(N2[C@@H]3COCCN3C(=O)c3c(O)c(=O)ccn32)c2ccc(F)c(F)c21 [3A]		7.8%	5.2 h	twice	0.0006 µM	
[2H]C1([2H])Sc2ccccc2[C@]([2H])(N2[C@@H]3COCCN3C(=O)c3c(OCOC(=O)OC)c(=O)ccn32)c2ccc(F)c(F)c21 [3B]		19.8%				0.33 mg/kg/day
O=C1c2c(O)c(=O)ccn2N([C@@H]2c3ccccc3SCc3c2ccc(F)c3F)[C@@H]2COCCN12 [S-033188A, reference compound]	29.9 µM	4.7%	3.8 h			
COC(=O)OCOc1c2n(ccc1=O)N([C@@H]1c3ccccc3SCc3c1ccc(F)c3F)[C@@H]1COCCN1C2=O [S-033188B, reference compound]		15.3%				0.78 mg/kg/day
